The target in one data set is T1, rat TSPO (Rattus norvegicus, UniProt P16257).
T1 construct: Heart of male Wistar derived rats weighing 175 ± 25 g are used to prepare peripheral benzodiazepine membrane receptors [TSPO]; tissue Eurofins Panlabs Discovery Services assay #226700; host or cells: rat heart (male Wistar derived)
Description: Competitive binding to rat TSPO vs [3H]PK 11195 (Eurofins assay #226700, rat heart membranes). The conditions noted are these: vs [3H]PK 11195, result in words. The method, then: (§1) Binding affinities (Ki) to wild-type (WT) and A147T human TSPO were assessed using a previously published method. HEK-293T cells were stably transfected with WT and A147T TSPO. Membranes were isolated from each cell line using an Ultra-Turrax hand-held homogeniser. These cells have been previously validated as an in vitro model for low- and high-affinity TSPO binding. […] Non-specific binding was determined using a saturating concentration (1 µM) of non-tritiated PK 11195. This non-specific binding contributed less than 10% of total binding. Reactions were halted by filtering through a 96-well glass-fibre filter plate (Millipore), followed by eight washes with ice-cold 50 mM Tris HCl. Microscint 0 was added to the plate and resultant radioactivity-related photons were collected by a Microbeta 2450 (PerkinElmer). Ki values were fit to a competition binding curve fit on non-specific binding-corrected data using GraphPad Prism 10.0 (GraphPad). Results are presented as mean ± standard error of the mean (SEM) from at least three independent experiments. Binding affinities (Ki) to rat TSPO were measured in duplicate by Eurofins Panlabs Discovery Services (assay #226700) (Supplementary Fig. 12). Single-dose (10 µM) off-target in vitro screening was performed in duplicate by Eurofins Panlabs Discovery Services (Supplementary Table 5).
Supplementary Figure 12 Dose-response curves and binding affinities of DPA-813 and DPA-814 showing competitive binding to rat TSPO vs [^3H]PK 11195. Method from Eurofins: Heart of male Wistar derived rats weighing 175 ± 25 g are used to prepare peripheral benzodiazepine membrane receptors [TSPO] in modified Tris-HCl buffer pH 7.5. A 0.25 mg aliquot is incubated with 0.3 nM [^3H]PK 11195 for 15 minutes at 25 °C. Non-specific binding is estimated in the presence of 100 μM Dipyridamole. Membranes are filtered and washed, the filters are then counted to determine [^3H]PK 11195 specifically bound.

The next data set deals with T2, MAO-B (Homo sapiens, UniProt P27338).
T2 construct: purchased Eurofins Panlabs Discovery Services
Kind of data set: Off-target screen, 10 µM single dose (Eurofins), enzymatic functional readout. It counts as biochemical. The conditions noted are these: n = 2, read-out: % Binding Inhibition at 10 μM, MAO-B. The method, then: as §1, with “Results are presented as mean ± standard error of the mean (SEM) from at least three independent experiments.” left out, “Single-dose (10 µM) off-target in vitro screening was performed in duplicate by Eurofins Panlabs Discovery Services (Supplementary Table 5).” left out
(§2) Supplementary Table 5. […] 10 μM single dose (n = 2) screen performed by Eurofins Panlabs Discovery. ^a All targets are human receptors. ^b Inhibition of antagonist radioligand binding. ^c Inhibition of agonist radioligand binding. ^d Enzymatic functional readout.

Another data set concerns the target T3, A147T human TSPO (Homo sapiens, UniProt P30536).
T3 construct: expressed in transfected cells
Kind of data set: Competition radioligand binding vs [3H]PK 11195, membranes of transfected HEK-293T cells (A147T TSPO). The conditions noted are these: for increase in affinity to A147T TSPO versus parent compound: DPA-813 vs DPA-713, DPA-814 vs DPA-714; for Ki: vs [3H]PK 11195 (10 nM), HEK-293T membranes, mean ± SEM, read-out: Ki A147T hTSPO. The method, then:
as §1
(§3) In vitro binding affinities (Ki) for human TSPO were initially assessed using a competition radioligand assay against [^3H]PK 11195 in our well-characterised assay using membranes isolated from transfected HEK-293T cells overexpressing either WT or A147T TSPO [32]. This structure-activity relationship study will be reported in a separate publication. […] Data for DPA-713 and DPA-714 are included for comparison.

The next data set concerns the target T4, CB1 (Homo sapiens, UniProt P21554).
T4 construct: purchased Eurofins Panlabs Discovery Services
Kind of data set: Off-target screen, 10 µM single dose (Eurofins). The conditions noted are these: read-out: % Binding Inhibition at 10 μM, CB1. The procedure:
as §1
(§4) Supplementary Table 5. Off-target binding to common CNS targets. 10 μM single dose (n = 2) screen performed by Eurofins Panlabs Discovery. ^a All targets are human receptors. ^b Inhibition of antagonist radioligand binding. ^c Inhibition of agonist radioligand binding. ^d Enzymatic functional readout.

The target of a further data set is T5, SERT (Homo sapiens, UniProt P31645).
T5 construct: purchased Eurofins Panlabs Discovery Services
Description: Off-target screen, 10 µM single dose (Eurofins). As to conditions: read-out: % Binding Inhibition at 10 μM, SERT. The procedure:
as §1, §4

Another data set addresses T6, DAT (Homo sapiens, UniProt Q01959).
T6 construct: purchased Eurofins Panlabs Discovery Services
Kind of data set: Off-target screen, 10 µM single dose (Eurofins). The conditions noted are these: read-out: % Binding Inhibition at 10 μM, DAT. The method, then:
as §1, §4

The target of another data set is T7, nAChR (α4/β2) (Homo sapiens, UniProt P17787+P43681).
T7 construct: purchased Eurofins Panlabs Discovery Services
Description: Off-target screen, 10 µM single dose (Eurofins). The conditions noted are these: read-out: % Binding Inhibition at 10 μM, nAChR (α4/β2). The procedure: as §1, §4

The next data set concerns the target T8, MOP (Homo sapiens, UniProt P35372).
T8 construct: purchased Eurofins Panlabs Discovery Services
Kind of data set: Off-target screen, 10 µM single dose (Eurofins). As to conditions: read-out: % Binding Inhibition at 10 μM, MOP. The procedure: as §1, §4

A further data set deals with T9, D1 (Homo sapiens, UniProt P21728).
T9 construct: purchased Eurofins Panlabs Discovery Services
Kind of data set: Off-target screen, 10 µM single dose (Eurofins). As to conditions: read-out: % Binding Inhibition at 10 μM, D1. The method, then:
as §1, §4

In another data set the target is T10, β2 Adrenergic receptor (Homo sapiens, UniProt P07550).
T10 construct: purchased Eurofins Panlabs Discovery Services
Kind of data set: Off-target screen, 10 µM single dose (Eurofins). As to conditions: read-out: % Binding Inhibition at 10 μM, β2 Adrenergic receptor. The procedure:
as §1, §4

The next data set concerns the target T11, CB2 (Homo sapiens, UniProt P34972).
T11 construct: purchased Eurofins Panlabs Discovery Services
Description: Off-target screen, 10 µM single dose (Eurofins). As to conditions: read-out: % Binding Inhibition at 10 μM, CB2. The method, then: as §1, §4

A further data set deals with T12, NET (Homo sapiens, UniProt P23975).
T12 construct: purchased Eurofins Panlabs Discovery Services
Description: Off-target screen, 10 µM single dose (Eurofins). The conditions noted are these: read-out: % Binding Inhibition at 10 μM, NET. The method, then:
as §1, §4

The next data set has as its target T13, D2L (Homo sapiens, UniProt P14416).
T13 construct: purchased Eurofins Panlabs Discovery Services
Description: Off-target screen, 10 µM single dose (Eurofins). The conditions noted are these: read-out: % Binding Inhibition at 10 μM, D2L. The method, then: as §1, §4

The next data set concerns the target T14, M1 (Homo sapiens, UniProt P11229).
T14 construct: purchased Eurofins Panlabs Discovery Services
Kind of data set: Off-target screen, 10 µM single dose (Eurofins). As to conditions: read-out: % Binding Inhibition at 10 μM, M1. The procedure:
as §1, §4

A further data set deals with T15, 5-HT2A (Homo sapiens, UniProt P28223).
T15 construct: purchased Eurofins Panlabs Discovery Services
Description: Off-target screen, 10 µM single dose (Eurofins). The conditions noted are these: read-out: % Binding Inhibition at 10 μM, 5-HT2A. The procedure: as §1, §4

The target of another data set is T16, 5-HT2B (Homo sapiens, UniProt P41595).
T16 construct: purchased Eurofins Panlabs Discovery Services
Kind of data set: Off-target screen, 10 µM single dose (Eurofins). The conditions noted are these: read-out: % Binding Inhibition at 10 μM, 5-HT2B. The procedure: as §1, §4

Data set [1] can be described thus: Lipophilicity (logD at pH 7.4) by gradient HPLC. It counts as physicochemical. As to conditions: gradient HPLC retention correlated with standard compounds; pH 7.4, gradient HPLC; read-out: logD7.4. From the text:
Partition coefficient values (logD) were estimated at pH 7.4 by correlating chromatographic retention properties against the characteristics of a series of standard compounds with known partition coefficient values. The method employed a gradient HPLC based on a previously published method.

For data set [2], the target named is T17, WT human TSPO (Homo sapiens, UniProt P30536).
T17 construct: expressed in transfected cells
Kind of data set: Competition radioligand binding vs [3H]PK 11195, membranes of transfected HEK-293T cells (WT TSPO). As to conditions: vs [3H]PK 11195 (10 nM), HEK-293T membranes, mean ± SEM; read-out: Ki WT hTSPO. The method, then: as §1, §3

Data set [3] concerns the target T18, WT human TSPO (Homo sapiens, UniProt P30536, T147A).
T18 construct: expressed in transfected cells
The data set is described as above. The conditions noted are these: DPA-813 vs DPA-713; DPA-814 vs DPA-714. The procedure: as §1, §3

In data set [4] the test system is Central Benzodiazepine Receptor. Kind of data set: Off-target screen, 10 µM single dose (Eurofins). Details: species or system human. The conditions noted are these: n = 2, inhibition of agonist radioligand binding. The procedure:
as §1, with “Results are presented as mean ± standard error of the mean (SEM) from at least three independent experiments.” left out, “Single-dose (10 µM) off-target in vitro screening was performed in duplicate by Eurofins Panlabs Discovery Services (Supplementary Table 5).” left out
as §2

The subject of a further data set is A147T TSPO. On the set-up: method as in PMID 30900397. The conditions noted are these: cited from earlier work.

Molecules are shown by their SMILES.

By Ki is commonly meant the equilibrium dissociation constant of an inhibitor or competing ligand from its target.

T3 sequence (P30536 whole entry, stated change not applied): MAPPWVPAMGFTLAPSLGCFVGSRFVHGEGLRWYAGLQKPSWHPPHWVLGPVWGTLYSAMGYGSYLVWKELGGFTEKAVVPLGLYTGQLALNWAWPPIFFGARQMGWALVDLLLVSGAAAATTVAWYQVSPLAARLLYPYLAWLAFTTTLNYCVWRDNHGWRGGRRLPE
T9 sequence (P21728 whole entry): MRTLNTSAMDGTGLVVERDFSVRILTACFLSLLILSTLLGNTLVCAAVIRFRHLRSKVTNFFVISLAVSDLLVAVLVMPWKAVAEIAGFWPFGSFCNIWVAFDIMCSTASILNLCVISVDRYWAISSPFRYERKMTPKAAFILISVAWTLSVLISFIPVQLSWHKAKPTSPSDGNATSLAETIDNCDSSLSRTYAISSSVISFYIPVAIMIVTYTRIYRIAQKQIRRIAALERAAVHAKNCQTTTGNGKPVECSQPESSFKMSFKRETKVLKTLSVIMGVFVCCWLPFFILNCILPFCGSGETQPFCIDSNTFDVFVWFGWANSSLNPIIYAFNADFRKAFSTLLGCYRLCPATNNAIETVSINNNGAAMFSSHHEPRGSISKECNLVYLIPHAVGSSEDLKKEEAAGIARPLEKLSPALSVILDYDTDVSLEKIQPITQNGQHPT
T13 sequence (P14416 whole entry): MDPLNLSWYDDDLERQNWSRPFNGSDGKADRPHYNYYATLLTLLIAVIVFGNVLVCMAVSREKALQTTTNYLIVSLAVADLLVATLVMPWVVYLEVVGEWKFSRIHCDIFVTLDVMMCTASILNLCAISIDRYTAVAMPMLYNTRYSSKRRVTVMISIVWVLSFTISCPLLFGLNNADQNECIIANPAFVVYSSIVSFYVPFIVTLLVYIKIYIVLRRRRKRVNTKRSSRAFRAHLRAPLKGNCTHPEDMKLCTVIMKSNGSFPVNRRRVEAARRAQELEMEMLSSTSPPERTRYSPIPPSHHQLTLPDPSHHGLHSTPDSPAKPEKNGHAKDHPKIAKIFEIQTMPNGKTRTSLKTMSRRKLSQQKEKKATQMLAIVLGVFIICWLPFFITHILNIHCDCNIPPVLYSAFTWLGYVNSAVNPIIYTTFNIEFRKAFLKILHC
T6 sequence (Q01959 whole entry): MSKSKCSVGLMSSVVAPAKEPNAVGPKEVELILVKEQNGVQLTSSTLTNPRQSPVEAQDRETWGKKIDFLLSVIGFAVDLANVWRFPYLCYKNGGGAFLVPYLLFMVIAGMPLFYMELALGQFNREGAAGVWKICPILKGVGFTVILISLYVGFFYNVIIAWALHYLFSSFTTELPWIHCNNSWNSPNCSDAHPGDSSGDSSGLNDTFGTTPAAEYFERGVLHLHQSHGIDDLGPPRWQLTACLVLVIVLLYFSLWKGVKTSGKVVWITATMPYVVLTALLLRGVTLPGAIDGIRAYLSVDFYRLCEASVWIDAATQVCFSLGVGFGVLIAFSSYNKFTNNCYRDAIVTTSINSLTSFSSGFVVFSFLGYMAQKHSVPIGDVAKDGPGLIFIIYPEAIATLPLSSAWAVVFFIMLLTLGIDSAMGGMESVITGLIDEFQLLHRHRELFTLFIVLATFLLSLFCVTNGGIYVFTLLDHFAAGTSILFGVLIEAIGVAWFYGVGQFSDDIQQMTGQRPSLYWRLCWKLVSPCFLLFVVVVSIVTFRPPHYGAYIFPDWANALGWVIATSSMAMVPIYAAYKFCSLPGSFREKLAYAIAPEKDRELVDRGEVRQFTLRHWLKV
T15 sequence (P28223 whole entry): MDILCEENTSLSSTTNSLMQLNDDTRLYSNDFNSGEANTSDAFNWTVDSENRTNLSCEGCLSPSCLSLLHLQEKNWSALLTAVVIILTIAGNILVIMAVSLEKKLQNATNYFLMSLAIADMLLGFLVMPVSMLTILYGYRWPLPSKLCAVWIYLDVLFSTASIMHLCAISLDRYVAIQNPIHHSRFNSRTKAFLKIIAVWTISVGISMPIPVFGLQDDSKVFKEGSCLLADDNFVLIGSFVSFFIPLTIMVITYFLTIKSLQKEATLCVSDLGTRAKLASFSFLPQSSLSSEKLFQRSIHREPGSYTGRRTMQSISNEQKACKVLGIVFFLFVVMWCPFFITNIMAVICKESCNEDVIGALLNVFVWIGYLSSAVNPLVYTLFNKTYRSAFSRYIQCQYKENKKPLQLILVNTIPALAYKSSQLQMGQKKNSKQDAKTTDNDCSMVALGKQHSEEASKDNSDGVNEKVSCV
T10 sequence (P07550 whole entry): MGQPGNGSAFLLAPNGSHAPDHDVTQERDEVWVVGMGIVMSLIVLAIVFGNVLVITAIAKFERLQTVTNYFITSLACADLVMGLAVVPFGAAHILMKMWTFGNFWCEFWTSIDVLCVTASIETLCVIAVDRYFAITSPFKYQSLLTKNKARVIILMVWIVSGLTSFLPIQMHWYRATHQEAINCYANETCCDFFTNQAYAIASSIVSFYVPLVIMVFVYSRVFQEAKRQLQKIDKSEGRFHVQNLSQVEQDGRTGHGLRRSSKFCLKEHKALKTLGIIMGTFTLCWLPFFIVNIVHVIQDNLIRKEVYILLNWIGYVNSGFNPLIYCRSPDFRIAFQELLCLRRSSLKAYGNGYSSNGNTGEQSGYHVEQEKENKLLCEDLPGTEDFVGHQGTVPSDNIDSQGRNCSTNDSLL
T12 sequence (P23975 whole entry): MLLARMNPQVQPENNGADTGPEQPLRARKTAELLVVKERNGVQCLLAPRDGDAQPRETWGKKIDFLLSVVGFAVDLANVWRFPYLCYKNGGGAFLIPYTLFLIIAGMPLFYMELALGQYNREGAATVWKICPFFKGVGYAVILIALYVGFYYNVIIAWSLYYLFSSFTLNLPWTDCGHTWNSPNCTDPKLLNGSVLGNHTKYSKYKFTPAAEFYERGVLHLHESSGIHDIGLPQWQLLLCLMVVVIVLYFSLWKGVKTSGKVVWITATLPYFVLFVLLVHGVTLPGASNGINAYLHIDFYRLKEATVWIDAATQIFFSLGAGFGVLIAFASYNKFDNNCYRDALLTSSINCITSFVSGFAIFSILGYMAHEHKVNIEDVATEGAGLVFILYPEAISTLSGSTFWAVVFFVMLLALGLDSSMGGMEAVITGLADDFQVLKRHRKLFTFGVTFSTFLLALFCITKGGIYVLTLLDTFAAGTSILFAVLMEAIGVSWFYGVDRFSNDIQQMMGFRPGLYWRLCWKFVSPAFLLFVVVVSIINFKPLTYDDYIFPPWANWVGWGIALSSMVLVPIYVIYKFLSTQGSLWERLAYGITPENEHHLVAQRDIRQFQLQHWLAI
T4 sequence (P21554 whole entry): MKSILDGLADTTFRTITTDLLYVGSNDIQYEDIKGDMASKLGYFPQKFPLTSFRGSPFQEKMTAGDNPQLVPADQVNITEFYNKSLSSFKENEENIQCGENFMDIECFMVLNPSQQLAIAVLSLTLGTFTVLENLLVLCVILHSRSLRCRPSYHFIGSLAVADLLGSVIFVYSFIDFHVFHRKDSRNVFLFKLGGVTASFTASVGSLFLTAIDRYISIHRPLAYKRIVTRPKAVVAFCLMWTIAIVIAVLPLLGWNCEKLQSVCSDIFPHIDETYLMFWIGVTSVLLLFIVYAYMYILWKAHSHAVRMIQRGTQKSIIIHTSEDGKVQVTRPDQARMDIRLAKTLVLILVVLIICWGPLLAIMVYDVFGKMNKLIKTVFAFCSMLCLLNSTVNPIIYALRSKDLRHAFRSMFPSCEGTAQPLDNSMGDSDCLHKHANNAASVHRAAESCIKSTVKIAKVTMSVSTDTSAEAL
T7 sequence (P43681 29-627 limits assumed): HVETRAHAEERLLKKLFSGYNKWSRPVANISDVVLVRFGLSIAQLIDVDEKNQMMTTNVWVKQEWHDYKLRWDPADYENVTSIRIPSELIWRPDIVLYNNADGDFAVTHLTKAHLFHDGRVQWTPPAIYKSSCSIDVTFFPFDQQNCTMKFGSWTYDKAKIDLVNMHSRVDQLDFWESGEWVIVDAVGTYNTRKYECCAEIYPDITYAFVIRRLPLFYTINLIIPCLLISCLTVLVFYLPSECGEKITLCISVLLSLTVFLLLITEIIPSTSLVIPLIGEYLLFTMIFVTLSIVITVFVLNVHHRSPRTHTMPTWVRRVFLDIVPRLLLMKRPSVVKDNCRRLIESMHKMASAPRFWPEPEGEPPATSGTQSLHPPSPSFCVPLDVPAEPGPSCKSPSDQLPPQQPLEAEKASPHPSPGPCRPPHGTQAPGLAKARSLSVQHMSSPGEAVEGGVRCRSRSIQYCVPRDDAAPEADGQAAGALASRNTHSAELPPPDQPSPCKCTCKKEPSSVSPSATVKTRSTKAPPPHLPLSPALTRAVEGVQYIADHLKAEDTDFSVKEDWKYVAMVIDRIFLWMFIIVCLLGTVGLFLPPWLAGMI
T7 sequence (P17787 26-502): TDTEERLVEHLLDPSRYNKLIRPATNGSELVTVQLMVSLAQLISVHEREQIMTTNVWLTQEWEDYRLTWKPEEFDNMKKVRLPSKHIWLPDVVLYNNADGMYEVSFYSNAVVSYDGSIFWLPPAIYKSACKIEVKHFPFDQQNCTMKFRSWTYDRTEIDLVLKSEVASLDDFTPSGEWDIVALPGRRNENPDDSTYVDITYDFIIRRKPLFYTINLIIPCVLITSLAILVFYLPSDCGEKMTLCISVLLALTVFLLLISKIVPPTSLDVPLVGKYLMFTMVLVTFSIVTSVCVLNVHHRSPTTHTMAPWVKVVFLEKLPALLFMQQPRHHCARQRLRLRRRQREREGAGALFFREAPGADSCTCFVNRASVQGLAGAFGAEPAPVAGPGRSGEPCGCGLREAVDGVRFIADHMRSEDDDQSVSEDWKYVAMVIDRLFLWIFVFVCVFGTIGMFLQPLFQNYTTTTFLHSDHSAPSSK
T17 sequence (P30536 whole entry T147A): as the sequence (P30536 whole entry, stated change not applied) above, with T147A counted along it
T18 sequence (P30536 whole entry T147A): as the sequence (P30536 whole entry, stated change not applied) above, with T147A counted along it

For `COc1ccc(-c2nn3c(C)cc(C)nc3c2CC(=O)N(C)c2ccccc2)cc1` [DPA-813], the “binding affinity to rat TSPO” value on rat TSPO was “subnanomolar”. For the same compound, the inhibition at 10 µM is 10% at MAO-B; 4% at CB1; 4% on SERT; 10% on DAT; 4% at nAChR (α4/β2); 15% at MOP. Moreover, the inhibition at 10 µM on D1 was 13%; at β2 Adrenergic receptor, -1%; at CB2, -16%; on NET it was 3%; on D2L, 10%; on M1, -13%. Moreover, the inhibition at 10 µM turned out to be 1% at 5-HT2A and 25% on 5-HT2B. For the same compound, the “increase in affinity to A147T TSPO versus parent compound” value on A147T human TSPO is ~ 32 fold. For the same compound, the values for the Ki on A147T human TSPO and on WT human TSPO [2] were 3.1 ± 0.9 nM and 6.2 ± 1.9 nM, respectively. Besides, the chromatographic logD in data set [1] amounted to 3.6. Also, the “increase in affinity to WT TSPO versus parent compound” value at WT human TSPO [3] is listed as ~ 3 fold. The “% Binding Inhibition at 10 μM, Central Benzodiazepine Receptor” value in data set [4] is listed as 51%.
Consider `CCN(CC)C(=O)[C@H]1CCCc2c1c1c(OC)cccc1n2CC[18F]` [[^18F]GE180], for which the “reduction in affinity for A147T TSPO in vitro” value in the data set on A147T TSPO was 5 fold.
For `Cc1cc(C)n2nc(-c3ccc(OCCF)cc3)c(CC(=O)N(C)c3ccccc3)c2n1` [DPA-814], the “binding affinity to rat TSPO” value on rat TSPO is “subnanomolar”. The inhibition at 10 µM on MAO-B was 47%; at CB1, -6%; at SERT, 2%; at DAT, 7%; at nAChR (α4/β2), 1%; on MOP it was 24%. For the same compound, the inhibition at 10 µM at D1 is 24%; at β2 Adrenergic receptor, 0%; on CB2 it was -22%; on NET, 4%; at D2L it was 11%; on M1, -14%. Besides, the inhibition at 10 µM is 4% at 5-HT2A and 30% at 5-HT2B. For the same compound, the “increase in affinity to A147T TSPO versus parent compound” value at A147T human TSPO stood at 46 fold. Besides, the inhibition constant (Ki) on A147T human TSPO is 5.7 ± 1.8 nM; at WT human TSPO [2], 7.3 ± 0.5 nM. For the same compound, the chromatographic logD in data set [1] turned out to be 3.7. Besides, the “increase in affinity to WT TSPO versus parent compound” value at WT human TSPO [3] worked out at 3 fold. In data set [4], the “% Binding Inhibition at 10 μM, Central Benzodiazepine Receptor” value is 18%.
